Tested on: primary hepatocytes isolated from rats
Test: Cell protective effects against doxorubicin in hepatocytes (WST-1 cell viability)
Assay type: cell-based
Conditions: Hepatocyte; primary rat hepatocytes pretreated with compound for 30 min, then doxorubicin; viability by WST-1 after 24-48 h
Procedure: Various endogenous/exogenous attacks on the cells trigger the mechanisms of cell death which is broadly classified into two types, i.e. apoptosis or necrosis. Using these cell death mechanisms, in the present experimental example, primacy hepatocytes isolated from rats were treated with drugs which were clinically shown to result in serious side-effects of hepatocyte toxicity or various chemicals which derive cell death, and the compounds synthesized in the Examples were estimated for their hepatocyte protective effects, after 24-48 h. The substances used to derive hepatocyte death include CCl4, ActD, H2O2, doxorubicin, anti-Fas Ab/Actinomycin D, acetaminophen, EtOH, CdCl2, palmitate, stearate, cyclophosphamide, terfenadine, diclofenac, simvastatin, and adefovir. Primary hepatocytes were isolated using the method of Seglen P O (Experimental Cell Research 74 (1972) pp 450-454). Briefly, hepatocytes were isolated according to the two-step collagenase perfusion method, and dead cells were removed by low speed (500 rpm) centrifugation for 10 min using percoll gradient (Kreamer B L etc, In Vitro Cellular & Developmental Biology 22 (1986) pp 201-211). During this step, the viability of cells was maintained 90% or above. The cells were suspended in HepatoZYME media (Gibco BRL), and the number of cells was counted. 1.5×10^4 cells in 100 μl were placed into the collagen-coated 96-well plate (BD biocoat), and adhered on the bottom for 3-4 h.
In order to assess the hepatocyte protective effect, above adhered cells were pretreated with the Example compounds for 30 min. At this time, the concentration of the Example compounds were serially diluted by 2-fold or 3-fold over 5 steps starting from 30 uM, 10 uM or 1 uM depending on the experiments, and the final concentration of DMSO was adjusted to 0.2%. 30 min after the treatment by compounds, cells were treated by the substances deriving hepatocyte death or hepatotoxic drugs at the concentrations indicated in Table 1. After 24-48 h, the viability of cells was determined to estimate the hepatocyte protective effects. The viability of cells was determined using WST-1 (MK-400, […]) method by the absorbance at 440 nm. Hepatocyte protective effects of the Example compounds were represented by “EC50” which was calculated from measured values. “EC50” herein means the concentration of the compound at which 50% of maximum protective effect is observed in the experiment.

Structure (SMILES)	EC50
c1cc(NC2CCCC2)c2[nH]c(C3=NCCS3)cc2c1 [Example 1, Cyclopentyl-[2-(4,5-dihydro-1,3-thiazol-2-yl)-1H-indol-7-yl]-amine]	> 1 µM
OC[C@@H]1CSC(c2cc3cc(Oc4cccnc4)cc(NC4CCOCC4)c3[nH]2)=N1 [Example 62, [(R)-2-(5-(pyridin-3-yl)oxy-7-(tetrahydropyran-4-yl)amino-1H-indol-2-yl)-4,5-dihydro-thiazol-4-yl]-methanol]	3.77 µM
c1cc(NC2CCNCC2)c2[nH]c(C3=NCCS3)cc2c1 [Example 7, [2-(4,5-Dihydro-thiazol-2-yl)-1H-indol-7-yl]-piperidin-4-yl-amine]	1.17 µM
O=C(O)C[C@@H]1CSC(c2cc3cc(F)cc(NC4CCCC4)c3[nH]2)=N1 [Example 71, [(R)-2-(5-fluoro-7-cyclopentylamino-1H-indol-2-yl)-4,5-dihydro-thiazol-4-yl]-acetic acid]	1.1 µM
Cc1cc(NCC2CCOCC2)c2[nH]c(C3=N[C@@H](CCN4CCNC(=O)C4)CS3)cc2c1 [Example 253, (5-Methyl-2-{(S)-4-[2-oxopiperazin-4-yl-ethyl]-4,5-dihydro-thiazol-2-yl}-1H-indol-7-yl)-(tetrahydropyran-4-yl)methyl-amine]	0.2 µM
O=C1CCCN1CC[C@@H]1CSC(c2cc3cc(F)cc(NC4CCCC4)c3[nH]2)=N1 [Example 205, (5-Fluoro-2-{(R)-4-[(2-oxopyrrolidin-1-yl)-ethyl]-4,5-dihydro-thiazol-2-yl}-1H-indol-7-yl)-cyclopentyl-amine]	0.34 µM
c1ccc(Oc2cc(NC3CCCC3)c3[nH]c(C4=N[C@@H](CCN5CCCC5)CS4)cc3c2)cc1 [Example 249, (5-Phenoxy-2-{(S)-4-[pyrrolidin-1-yl-ethyl]-4,5-dihydro-thiazol-2-yl}-1H-indol-7-yl)-cyclopentyl-amine]	0.11 µM
O=C(O)C[C@H]1COC(c2cc3cc(Cl)cc(NCC4CCOCC4)c3[nH]2)=N1 [Example 122, [(S)-2-(5-chloro-7-(tetrahydropyran-4-yl)methylamino-1H-indol-2-yl)-4,5-dihydro-oxazol-4-yl]-acetic acid]	0.96 µM
COC(=O)C[C@@H]1CSC(c2cc3cc(CN4CCCC4)cc(NC4CCCC4)c3[nH]2)=N1 [Example 40, [(R)-2-(5-(pyrrolidin-1-yl)methyl-7-cyclopentylamino-1H-indol-2-yl)-4,5-dihydro-thiazol-4-yl]-acetic acid methyl ester]	15.6 µM
CCOP(=O)(CC[C@H]1CSC(c2cc3cc(C)cc(NCC4CCOCC4)c3[nH]2)=N1)OCC [Example 244, (5-Methyl-2-{(S)-4-[2-diethoxyphosphoryl-ethyl]-4,5-dihydro-thiazol-2-yl}-1H-indol-7-yl)-(tetrahydropyran-4-yl)methyl-amine]	0.195 µM
CCOc1cc(NC2CCCC2)c2[nH]c(C3=N[C@H](CCC(=O)O)CS3)cc2c1 [Example 115, 3-[(R)-2-(5-ethoxy-7-cyclopentylamino-1H-indol-2-yl)-4,5-dihydro-thiazol-4-yl]-propionic acid]	< 1 µM
Cc1cc(NC2CCOCC2)c2[nH]c(C3=N[C@@H](CC(=O)O)CS3)cc2c1 [Example 25, [(S)-2-(5-methyl-7-(tetrahydropyran-4-yl)amino-1H-indol-2-yl)-4,5-dihydro-thiazol-4-yl]-acetic acid]	0.76 µM
Fc1cc(NC2CCCC2)c2[nH]c(C3=N[C@H](CCN4CCOCC4)CS3)cc2c1 [Example 201, (5-Fluoro-2-{(R)-4-[(morpholin-4-yl)-ethyl]-4,5-dihydro-thiazol-2-yl}-1H-indol-7-yl)-cyclopentyl-amine]	0.33 µM
FCc1nnc2n1CCN(CC[C@H]1CSC(c3cc4cc(Oc5ccccc5)cc(NC5CCCC5)c4[nH]3)=N1)C2 [Example 232, Cyclopentyl-(5-phenoxy-2-{(S)-4-[2-(3-fluoromethyl-5,6-dihydro-8H-[1,2,4]triazolo[4,3-a]pyrazin-7-yl)-ethyl]-4,5-dihydro-thiazol-2-yl}-1H-indol-7-yl)-amine]	0.24 µM
O=C(O)CC[C@@H]1CSC(c2cc3cc(OC(F)(F)F)cc(NC4CCCC4)c3[nH]2)=N1 [Example 117, 3-[(R)-2-(5-trifluoromethoxy-7-cyclopentylamino-1H-indol-2-yl)-4,5-dihydro-thiazol-4-yl]-propionic acid]	< 0.5 µM
Cc1cc(NC2CCOCC2)c2[nH]c(C3=N[C@@H](CCN4CCOCC4)CS3)cc2c1 [Example 184, (5-Methyl-2-{(S)-4-[(morpholin-4-yl)-ethyl]-4,5-dihydro-thiazol-2-yl}-1H-indol-7-yl)-(tetrahydro-pyran-4-yl)-amine]	0.18 µM
Cc1cc(NC2CCOCC2)c2[nH]c(C3=N[C@H](CC(=O)O)CS3)cc2c1 [Example 93, [(R)-2-(5-methyl-7-(tetrahydropyran-4-yl)amino-1H-indol-2-yl)-4,5-dihydro-thiazol-4-yl]-acetic acid]	0.55 µM
Cc1cc(NC2CCC(F)(F)CC2)c2[nH]c(C3=N[C@@H](CCN4CCNC(=O)C4)CS3)cc2c1 [Example 250, (5-Methyl-2-{(S)-4-[2-oxopiperazin-4-yl-ethyl]-4,5-dihydro-thiazol-2-yl}-1H-indol-7-yl)-4,4-difluorocyclohexyl-amine]	0.09 µM
O=C(O)C[C@H]1CSC(c2cc3cc(Cl)cc(NCC4CCOCC4)c3[nH]2)=N1 [Example 18, [(S)-2-(5-chloro-7-(tetrahydropyran-4-yl)methylamino-1H-indol-2-yl)-4,5-dihydro-thiazol-4-yl]-acetic acid]	2.42 µM
O=C(O)C[C@H]1CSC(c2cc3cccc(NC4CCOCC4)c3[nH]2)=N1 [Example 11, [(S)-2-(7-(tetrahydropyran-4-yl)amino-1H-indol-2-yl)-4,5-dihydro-thiazol-4-yl]-acetic acid]	2.8 µM
Clc1cc(NC2CCOCC2)c2[nH]c(C3=N[C@@H](CCN4CCN(c5ccccn5)CC4)CS3)cc2c1 [Example 254, (5-Chloro-2-{(S)-4-[1-(pyridin-2-yl)piperazin-4-yl-ethyl]-4,5-dihydro-thiazol-2-yl}-1H-indol-7-yl)-(tetrahydropyran-4-yl)-amine]	1 µM
CC(C)CN(CC(C)C)c1cc(Oc2ccccc2)cc2cc(C3=N[C@@H](CCN4CCCC4)CS3)[nH]c12 [Example 228, (5-Phenoxy-2-{(S)-4-[(pyrrolidin-1-yl)-ethyl]-4,5-dihydro-thiazol-2-yl}-1H-indol-7-yl)-diisobutyl-amine]	0.13 µM
Clc1cc(NC2CCCC2)c2[nH]c(C3=N[C@H](CCCN4CCOCC4)CS3)cc2c1 [Example 222, (5-Chloro-2-{(R)-4-[(morpholin-4-yl)-propyl]-4,5-dihydro-thiazol-2-yl}-1H-indol-7-yl)-cyclopentyl-amine]	0.18 µM

Same assay, conditions: primary rat hepatocytes pretreated with compound for 30 min, then doxorubicin; viability by WST-1 after 24-48 h

Structure (SMILES)	EC50
CN(c1cc(F)cc2cc(C3=N[C@H](CO)CS3)[nH]c12)C1CCCC1 [Example 45, {(R)-2-[7-(methyl-cyclopentyl)amino-5-fluoro-1H-indol-2-yl]-4,5-dihydro-1,3-thiazol-4-yl}-methanol]	1.32 µM
O=C1CN(CC[C@H]2CSC(c3cc4cc(Oc5ccccc5)cc(NC5CCCC5)c4[nH]3)=N2)CCN1 [Example 233]	0.27 µM
c1ccc(Oc2cc(NC3CCCC3)c3[nH]c(C4=N[C@@H](CCN5CCN(c6ccccn6)CC5)CS4)cc3c2)cc1 [Example 235, (5-Phenoxy-2-{(S)-4-[(pyridin-2-yl)piperazine-ethyl]-4,5-dihydro-thiazol-2-yl}-1H-indol-7-yl)-cyclopentyl-amine]	> 0.54 µM
OCC[C@@H]1CSC(c2cc3cc(Cl)cc(NC4CCOCC4)c3[nH]2)=N1 [Example 67, [(R)-2-(5-chloro-7-(tetrahydropyran-4-yl)amino-1H-indol-2-yl)-4,5-dihydro-thiazol-4-yl]-ethanol]	> 1 µM
CC(=O)N1CCN(CC[C@H]2CSC(c3cc4cc(Oc5ccccc5)cc(NC5CCCC5)c4[nH]3)=N2)CC1 [Example 239]	0.83 µM

— patent publication US8222414B2, “Indole compounds as an inhibitor of cellular necrosis” (LG Life Sciences Ltd., priority 2007, dated 2012)
